Here are results for three molecules from patent publication US12516026B2, “Cabozantinib compositions and methods of use” (priority 2023, dated 2026).

Series [1] can be described thus: Example 25: impurity profile of cabozantinib lauryl sulfate lots stored at 40° C. and 75% relative humidity. The class given is physicochemical. The conditions noted are these: 40° C./75% RH.
For series [2] the following is noted: single dose, healthy human subjects, cited from earlier work.

`CCCCCCCCCCCCOS(=O)(=O)O.COc1cc2nccc(Oc3ccc(NC(=O)C4(C(=O)Nc5ccc(F)cc5)CC4)cc3)c2cc1OC` [Example 25B, cabozantinib lauryl sulfate]: in series [1] (0 months), the “Related Substance 1 Int2-Imp1” value is 0.12%, the “Related Substance 1 Int3-Imp5” value was less than 0.05%, the “Related Substance 1 Total imp.” value is 0.20% and the “Related Substance 1 Unidentified imp” value was determined as 0.06%. Besides, in series [1] (0 months), the “Related Substance 2 Int1” value was 2.77 ppm and the “Water Content” value was determined as 0.19%. Moreover, in series [1] (1 month), the “Related Substance 1 Int2-Imp1” value was 0.07%, the “Related Substance 1 Int3-Imp5” value is less than 0.05%, the “Related Substance 1 Total imp.” value is given as 0.09% and the “Related Substance 2 Int1” value was found to be 6.28 ppm. Besides, in series [1] (3 months), the “Related Substance 1 Int2-Imp1” value was 0.06%, the “Related Substance 1 Int3-Imp2” value is recorded as less than 0.05%, the “Related Substance 1 Int3-Imp5” value is less than 0.05% and the “Related Substance 1 Total imp.” value stood at 0.11%. In series [1] (3 months), the “Related Substance 2 Int1” value came to 6.50 ppm and the “Water Content” value worked out at 0.10%. Besides, in series [1] (6 months), the “Related Substance 1 Int2-Imp1” value is 0.10%, the “Related Substance 1 Int3-Imp5” value was less than 0.05%, the “Related Substance 1 Int3-Imp7” value is given as less than 0.05% and the “Related Substance 1 Total imp.” value is on record as 0.10%. In series [1] (6 months), the “Related Substance 1 Unidentified imp” value is less than 0.05% and the “Related Substance 2 Int1” value was 7.34 ppm.

Take `CCCCCCCCCCCCOS(=O)(=O)O.COc1cc2nccc(Oc3ccc(NC(=O)C4(C(=O)Nc5ccc(F)cc5)CC4)cc3)c2cc1OC` [Example 25C, cabozantinib lauryl sulfate]: in series [1] (0 months), the “Related Substance 1 Int2-Imp1” value stood at 0.10%, the “Related Substance 1 Int3-Imp5” value worked out at 0.05%, the “Related Substance 1 Int3-Imp7” value is listed as less than 0.05% and the “Related Substance 1 Total imp.” value is listed as 0.24%. Moreover, in series [1] (0 months), the “Related Substance 1 Unidentified imp” value is less than 0.05%, the “Related Substance 2 Int1” value is reported as 5.22 ppm and the “Water Content” value was determined as 0.31%. In addition, in series [1] (1 month), the “Related Substance 1 Int2-Imp1” value worked out at 0.11%, the “Related Substance 1 Int3-Imp5” value is given as less than 0.05%, the “Related Substance 1 Int3-Imp7” value was 0.05% and the “Related Substance 1 Total imp.” value is listed as 0.24%. Moreover, in series [1] (1 month), the “Related Substance 1 Unidentified imp” value is on record as less than 0.05%, the “Related Substance 2 Int1” value stood at 5.98 ppm and the “Water Content” value is recorded as 0.29%. In addition, in series [1] (2 months), the “Related Substance 1 Int2-Imp1” value is 0.13%, the “Related Substance 1 Int3-Imp5” value is recorded as less than 0.05%, the “Related Substance 1 Int3-Imp7” value was less than 0.05% and the “Related Substance 1 Total imp.” value is on record as 0.21%. In addition, in series [1] (2 months), the “Related Substance 2 Int1” value came to 6.07 ppm and the “Water Content” value is given as 0.068%. In series [1] (3 months), the “Related Substance 1 Int2-Imp1” value is 0.13%, the “Related Substance 1 Int3-Imp5” value is on record as less than 0.05%, the “Related Substance 1 Int3-Imp7” value is listed as less than 0.05% and the “Related Substance 1 Total imp.” value was 0.29%. In series [1] (3 months), the “Related Substance 1 Unidentified imp” value was less than 0.05%, the “Related Substance 2 Int1” value was found to be 6.99 ppm and the “Water Content” value came out at 0.05%.

On to ^14C-cabozantinib, for which, in series [2] (48-day collection period), the “radioactivity recovered in feces” value is “approximately 54%” and the “radioactivity recovered in urine” value is reported as approximately 27%. For the same molecule, the “total administered radioactivity recovered” value in series [2] (within a 48-day collection period) is on record as “approximately 81%”.
